Data from ChEMBL document CHEMBL5291721, “A preclinical secondary pharmacology resource illuminates target-adverse drug reaction associations of marketed drugs” (Nat Commun, 2023).

Assays:
[1] = target: T1, Gamma-aminobutyric acid receptor subunit alpha-1 (Rattus norvegicus, UniProt P62813); type: functional
[2] = target: T2, Muscarinic acetylcholine receptor M2 (Homo sapiens, UniProt P08172); type: functional, cell-based
T2 sequence (P08172 whole entry): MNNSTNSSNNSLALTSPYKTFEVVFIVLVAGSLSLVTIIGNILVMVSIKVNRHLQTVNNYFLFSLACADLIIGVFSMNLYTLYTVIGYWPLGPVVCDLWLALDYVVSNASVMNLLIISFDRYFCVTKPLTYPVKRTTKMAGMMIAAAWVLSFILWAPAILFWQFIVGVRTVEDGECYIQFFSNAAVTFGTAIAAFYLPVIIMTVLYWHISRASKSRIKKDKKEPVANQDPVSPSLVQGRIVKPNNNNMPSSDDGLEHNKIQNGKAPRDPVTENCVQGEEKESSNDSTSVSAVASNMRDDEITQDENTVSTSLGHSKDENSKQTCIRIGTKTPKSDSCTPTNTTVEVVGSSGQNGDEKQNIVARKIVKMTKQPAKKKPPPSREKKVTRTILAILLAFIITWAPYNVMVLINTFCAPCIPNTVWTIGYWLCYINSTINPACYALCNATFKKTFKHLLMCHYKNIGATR

Glucocorticoid receptor = target: T3, Glucocorticoid receptor (Homo sapiens, UniProt P04150)
T3 sequence (P04150 whole entry): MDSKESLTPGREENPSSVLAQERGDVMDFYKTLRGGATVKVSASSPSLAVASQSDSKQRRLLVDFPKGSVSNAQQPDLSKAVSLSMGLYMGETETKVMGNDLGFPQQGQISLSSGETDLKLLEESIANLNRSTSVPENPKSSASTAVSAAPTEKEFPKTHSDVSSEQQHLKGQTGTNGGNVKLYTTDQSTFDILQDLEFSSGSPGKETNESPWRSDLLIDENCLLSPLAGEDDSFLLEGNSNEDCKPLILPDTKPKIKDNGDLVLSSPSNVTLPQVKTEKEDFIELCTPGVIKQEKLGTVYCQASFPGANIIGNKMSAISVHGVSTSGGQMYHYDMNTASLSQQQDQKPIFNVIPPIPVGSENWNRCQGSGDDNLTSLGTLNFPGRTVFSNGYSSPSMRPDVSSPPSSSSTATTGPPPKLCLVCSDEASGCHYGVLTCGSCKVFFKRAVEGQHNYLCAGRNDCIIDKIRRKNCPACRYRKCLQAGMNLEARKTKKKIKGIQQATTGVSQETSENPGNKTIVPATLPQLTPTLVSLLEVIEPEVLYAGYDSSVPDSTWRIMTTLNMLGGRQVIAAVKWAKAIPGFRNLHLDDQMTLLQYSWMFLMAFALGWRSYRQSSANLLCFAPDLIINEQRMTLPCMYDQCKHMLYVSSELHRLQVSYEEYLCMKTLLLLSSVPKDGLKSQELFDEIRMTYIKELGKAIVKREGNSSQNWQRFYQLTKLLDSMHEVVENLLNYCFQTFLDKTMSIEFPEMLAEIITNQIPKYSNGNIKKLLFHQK

[3] = target: T4, Alpha-1A adrenergic receptor (Homo sapiens, UniProt P35348)
T4 sequence (P35348 whole entry): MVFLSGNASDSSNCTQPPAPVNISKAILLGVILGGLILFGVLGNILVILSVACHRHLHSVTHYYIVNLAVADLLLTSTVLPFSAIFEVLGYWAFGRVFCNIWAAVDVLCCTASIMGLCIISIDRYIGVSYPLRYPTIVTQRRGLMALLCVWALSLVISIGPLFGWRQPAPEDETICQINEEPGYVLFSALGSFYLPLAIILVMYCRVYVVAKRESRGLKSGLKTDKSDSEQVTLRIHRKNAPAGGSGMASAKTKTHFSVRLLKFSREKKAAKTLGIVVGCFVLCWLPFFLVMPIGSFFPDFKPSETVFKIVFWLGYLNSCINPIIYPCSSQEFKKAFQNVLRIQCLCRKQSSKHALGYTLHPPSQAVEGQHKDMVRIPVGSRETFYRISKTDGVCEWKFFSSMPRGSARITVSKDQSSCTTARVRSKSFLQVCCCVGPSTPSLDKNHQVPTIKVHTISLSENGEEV

Histamine H3 receptor [4] = target: T5, Histamine H3 receptor (Homo sapiens, UniProt Q9Y5N1)
T5 sequence (Q9Y5N1 whole entry): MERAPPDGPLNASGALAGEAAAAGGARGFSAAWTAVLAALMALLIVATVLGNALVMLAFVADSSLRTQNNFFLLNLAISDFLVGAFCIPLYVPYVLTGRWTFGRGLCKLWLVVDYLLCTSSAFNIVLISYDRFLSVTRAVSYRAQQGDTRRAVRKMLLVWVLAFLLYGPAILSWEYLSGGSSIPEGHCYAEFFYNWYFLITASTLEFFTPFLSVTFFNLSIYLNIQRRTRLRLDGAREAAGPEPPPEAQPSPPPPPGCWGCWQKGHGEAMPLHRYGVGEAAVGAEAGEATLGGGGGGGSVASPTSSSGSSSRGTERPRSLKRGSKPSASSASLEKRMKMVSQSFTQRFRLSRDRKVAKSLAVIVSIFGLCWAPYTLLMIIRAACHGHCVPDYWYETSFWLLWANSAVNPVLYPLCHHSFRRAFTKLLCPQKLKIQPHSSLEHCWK

[5] = target: T1, Gamma-aminobutyric acid receptor subunit alpha-1
[6] = target: T6, 5-hydroxytryptamine receptor 2B (Homo sapiens, UniProt P41595); type: functional, cell-based
T6 sequence (P41595 whole entry): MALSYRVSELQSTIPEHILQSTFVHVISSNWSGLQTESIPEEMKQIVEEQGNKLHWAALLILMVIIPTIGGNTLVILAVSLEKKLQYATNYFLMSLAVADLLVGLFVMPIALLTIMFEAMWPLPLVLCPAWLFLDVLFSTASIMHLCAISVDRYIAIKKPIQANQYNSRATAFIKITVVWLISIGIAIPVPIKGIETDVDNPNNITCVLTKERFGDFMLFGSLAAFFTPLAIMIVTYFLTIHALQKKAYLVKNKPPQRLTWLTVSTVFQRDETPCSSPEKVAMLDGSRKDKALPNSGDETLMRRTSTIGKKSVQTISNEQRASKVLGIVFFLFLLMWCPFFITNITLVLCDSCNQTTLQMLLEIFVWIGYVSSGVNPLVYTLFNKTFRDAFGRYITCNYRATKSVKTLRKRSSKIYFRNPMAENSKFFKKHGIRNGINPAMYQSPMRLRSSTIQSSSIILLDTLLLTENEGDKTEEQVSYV

Cannabinoid receptor 1 = Cannabinoid receptor 1 (Homo sapiens, UniProt P21554); type: functional, cell-based
Sequence of Cannabinoid receptor 1 (P21554 whole entry): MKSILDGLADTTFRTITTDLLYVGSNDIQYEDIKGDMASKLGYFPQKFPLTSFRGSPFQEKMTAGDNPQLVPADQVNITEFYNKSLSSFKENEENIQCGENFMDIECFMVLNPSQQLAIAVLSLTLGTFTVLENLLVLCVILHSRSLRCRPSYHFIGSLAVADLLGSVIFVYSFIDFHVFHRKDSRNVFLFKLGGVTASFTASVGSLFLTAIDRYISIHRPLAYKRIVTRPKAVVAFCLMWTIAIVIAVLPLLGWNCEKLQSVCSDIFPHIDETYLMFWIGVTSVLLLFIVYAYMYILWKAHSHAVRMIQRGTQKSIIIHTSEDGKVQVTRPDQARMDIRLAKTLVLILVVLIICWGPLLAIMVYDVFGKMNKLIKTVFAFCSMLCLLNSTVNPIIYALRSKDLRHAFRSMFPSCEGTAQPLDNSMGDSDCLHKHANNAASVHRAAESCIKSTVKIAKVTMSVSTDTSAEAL

[7] = target: 3',5'-cyclic-AMP phosphodiesterase 4A (Homo sapiens, UniProt P27815); type: functional
Sequence of 3',5'-cyclic-AMP phosphodiesterase 4A (P27815 whole entry): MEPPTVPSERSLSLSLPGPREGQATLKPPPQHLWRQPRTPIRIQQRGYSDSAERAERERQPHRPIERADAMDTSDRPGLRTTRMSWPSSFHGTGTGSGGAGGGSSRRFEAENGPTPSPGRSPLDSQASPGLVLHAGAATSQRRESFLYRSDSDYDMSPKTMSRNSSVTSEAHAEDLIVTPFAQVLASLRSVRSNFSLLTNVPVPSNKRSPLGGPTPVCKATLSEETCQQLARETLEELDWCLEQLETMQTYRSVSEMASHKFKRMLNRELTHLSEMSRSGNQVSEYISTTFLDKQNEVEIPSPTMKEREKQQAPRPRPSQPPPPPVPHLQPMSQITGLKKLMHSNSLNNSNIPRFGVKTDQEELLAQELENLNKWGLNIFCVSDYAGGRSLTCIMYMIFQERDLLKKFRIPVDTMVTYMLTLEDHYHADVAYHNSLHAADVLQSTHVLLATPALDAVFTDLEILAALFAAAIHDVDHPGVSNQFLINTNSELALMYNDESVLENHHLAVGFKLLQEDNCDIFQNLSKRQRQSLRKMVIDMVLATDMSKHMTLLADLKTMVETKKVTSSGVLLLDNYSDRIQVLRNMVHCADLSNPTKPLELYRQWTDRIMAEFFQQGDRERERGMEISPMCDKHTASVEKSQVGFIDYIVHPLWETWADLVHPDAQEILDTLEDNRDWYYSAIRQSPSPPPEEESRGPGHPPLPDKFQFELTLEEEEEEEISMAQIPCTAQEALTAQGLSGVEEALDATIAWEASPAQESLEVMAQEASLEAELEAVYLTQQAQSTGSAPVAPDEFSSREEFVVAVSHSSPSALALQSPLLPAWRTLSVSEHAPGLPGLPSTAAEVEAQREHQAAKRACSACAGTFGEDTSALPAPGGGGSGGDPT

Acetylcholinesterase = Acetylcholinesterase (Homo sapiens, UniProt P22303); type: functional
Sequence of Acetylcholinesterase (P22303 whole entry): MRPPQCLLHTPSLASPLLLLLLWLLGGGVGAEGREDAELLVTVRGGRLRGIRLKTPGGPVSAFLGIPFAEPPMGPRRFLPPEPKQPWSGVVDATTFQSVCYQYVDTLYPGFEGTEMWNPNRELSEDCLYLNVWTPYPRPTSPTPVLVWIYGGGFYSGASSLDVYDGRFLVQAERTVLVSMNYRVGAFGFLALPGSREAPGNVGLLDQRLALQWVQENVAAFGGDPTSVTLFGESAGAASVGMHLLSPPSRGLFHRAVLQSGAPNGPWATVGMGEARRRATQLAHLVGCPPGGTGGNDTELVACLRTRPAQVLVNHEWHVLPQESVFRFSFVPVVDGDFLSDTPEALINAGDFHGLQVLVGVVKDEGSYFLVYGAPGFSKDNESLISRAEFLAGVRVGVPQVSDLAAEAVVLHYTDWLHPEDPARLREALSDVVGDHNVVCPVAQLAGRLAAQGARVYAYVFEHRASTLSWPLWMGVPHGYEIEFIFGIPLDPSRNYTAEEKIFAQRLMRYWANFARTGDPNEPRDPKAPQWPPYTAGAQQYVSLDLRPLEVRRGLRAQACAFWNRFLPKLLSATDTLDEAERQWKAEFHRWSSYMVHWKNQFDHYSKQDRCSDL

Histamine H3 receptor [8] = target: T5, Histamine H3 receptor; remark: listed apart in the source
[9] = target: T6, 5-hydroxytryptamine receptor 2B; type: functional, cell-based; remark: listed apart in the source
[10] = target: Vascular endothelial growth factor receptor 2 (Homo sapiens, UniProt P35968); type: functional
Sequence of Vascular endothelial growth factor receptor 2 (P35968 whole entry): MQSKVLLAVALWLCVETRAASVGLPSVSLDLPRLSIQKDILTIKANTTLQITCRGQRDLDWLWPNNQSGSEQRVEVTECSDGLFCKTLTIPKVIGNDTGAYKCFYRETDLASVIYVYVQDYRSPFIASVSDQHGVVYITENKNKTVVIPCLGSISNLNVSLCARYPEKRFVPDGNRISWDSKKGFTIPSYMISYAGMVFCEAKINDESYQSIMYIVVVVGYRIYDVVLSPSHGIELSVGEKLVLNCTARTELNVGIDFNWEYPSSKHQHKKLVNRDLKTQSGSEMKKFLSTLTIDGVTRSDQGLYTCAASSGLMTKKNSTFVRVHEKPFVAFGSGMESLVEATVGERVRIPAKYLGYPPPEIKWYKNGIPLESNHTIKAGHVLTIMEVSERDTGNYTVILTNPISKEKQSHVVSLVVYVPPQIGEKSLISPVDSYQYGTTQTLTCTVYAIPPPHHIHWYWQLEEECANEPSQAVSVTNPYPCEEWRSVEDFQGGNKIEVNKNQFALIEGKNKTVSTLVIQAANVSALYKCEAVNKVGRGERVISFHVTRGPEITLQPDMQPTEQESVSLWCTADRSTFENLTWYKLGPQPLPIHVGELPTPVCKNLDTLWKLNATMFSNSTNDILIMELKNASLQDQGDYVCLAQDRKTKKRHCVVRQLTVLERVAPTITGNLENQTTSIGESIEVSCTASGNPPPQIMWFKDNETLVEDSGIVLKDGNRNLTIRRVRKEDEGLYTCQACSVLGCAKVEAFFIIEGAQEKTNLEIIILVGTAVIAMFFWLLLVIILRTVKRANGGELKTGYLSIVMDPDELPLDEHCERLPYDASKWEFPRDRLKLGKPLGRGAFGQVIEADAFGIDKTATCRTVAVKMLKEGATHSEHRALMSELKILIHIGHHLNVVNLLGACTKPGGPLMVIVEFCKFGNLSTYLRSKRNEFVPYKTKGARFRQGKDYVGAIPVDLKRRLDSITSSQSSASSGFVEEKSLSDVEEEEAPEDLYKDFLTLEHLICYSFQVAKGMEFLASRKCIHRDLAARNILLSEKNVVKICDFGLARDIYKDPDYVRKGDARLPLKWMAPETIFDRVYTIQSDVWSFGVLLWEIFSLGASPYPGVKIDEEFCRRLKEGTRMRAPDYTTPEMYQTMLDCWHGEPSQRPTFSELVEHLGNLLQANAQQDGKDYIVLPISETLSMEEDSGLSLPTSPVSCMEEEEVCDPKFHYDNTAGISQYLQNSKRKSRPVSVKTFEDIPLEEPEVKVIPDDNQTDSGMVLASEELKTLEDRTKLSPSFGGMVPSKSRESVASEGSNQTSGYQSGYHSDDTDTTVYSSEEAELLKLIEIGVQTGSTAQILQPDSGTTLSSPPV

[11] = target: T4, Alpha-1A adrenergic receptor; type: functional, cell-based
[12] = target: T2, Muscarinic acetylcholine receptor M2
[13] = target: T4, Alpha-1A adrenergic receptor; type: functional, cell-based; remark: listed apart in the source
Also: assay procedure not described here.

T1 sequence (P62813 whole entry): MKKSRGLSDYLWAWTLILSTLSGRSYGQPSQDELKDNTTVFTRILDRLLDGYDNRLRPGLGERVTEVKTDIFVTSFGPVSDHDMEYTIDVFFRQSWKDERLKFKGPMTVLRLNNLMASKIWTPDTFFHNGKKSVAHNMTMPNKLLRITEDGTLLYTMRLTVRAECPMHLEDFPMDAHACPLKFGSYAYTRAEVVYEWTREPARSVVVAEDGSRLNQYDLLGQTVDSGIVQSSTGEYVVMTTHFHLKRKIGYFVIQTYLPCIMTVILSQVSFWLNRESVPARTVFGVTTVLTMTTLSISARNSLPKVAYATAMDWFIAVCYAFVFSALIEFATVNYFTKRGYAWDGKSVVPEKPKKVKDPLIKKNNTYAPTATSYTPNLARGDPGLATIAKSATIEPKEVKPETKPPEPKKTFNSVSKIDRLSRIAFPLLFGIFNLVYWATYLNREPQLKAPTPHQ

Structure (SMILES)	AC50 [1] [µM]	AC50 [2] [µM]	AC50 (Glucocorticoid receptor) [µM]	AC50 [3] [µM]	AC50 (Histamine H3 receptor [4]) [µM]	AC50 [5] [µM]	AC50 [6] [µM]	AC50 (Cannabinoid receptor 1) [µM]	AC50 [7] [µM]	AC50 (Acetylcholinesterase) [µM]	AC50 (Histamine H3 receptor [8]) [µM]	AC50 [9] [µM]	AC50 [10] [µM]	AC50 [11] [µM]	AC50 [12] [µM]	AC50 [13] [µM]
C=CCNc1nc(NCC=C)nc(N2CCN(C(c3ccc(F)cc3)c3ccc(F)cc3)CC2)n1 [ALMITRINE]	> 30	> 30	> 30	> 30	> 30	> 30	> 30	–	–	–	–	–	–	–	–	–
CC(CCc1ccc(O)cc1)NCCc1ccc(O)c(O)c1 (centres undefined) [DOBUTAMINE]	> 30	> 30	> 30	0.255	> 30	> 30	> 30	> 30	–	–	–	–	–	–	–	–
COC(=O)c1ccc(O)cc1 [METHYLPARABEN]	–	–	–	–	–	–	–	–	> 30	> 30	> 30	> 30	> 30	> 30	> 30	–
CCC[C@H](NC(=O)[C@@H]1[C@H]2CCC[C@H]2CN1C(=O)[C@@H](NC(=O)[C@@H](NC(=O)c1cnccn1)C1CCCCC1)C(C)(C)C)C(=O)C(=O)NC1CC1	> 10	–	> 30	> 10	> 10	> 10	–	–	–	–	–	–	–	–	–	–
CC(C)[C@H](N)C(=O)OCC(CO)OCn1cnc2c(=O)nc(N)[nH]c21 (some centres undefined) [VALGANCICLOVIR]	> 30	> 30	> 30	> 30	> 30	> 30	> 30	–	–	–	–	–	–	–	–	–
CNCc1ccc(-c2[nH]c3cc(F)cc4c3c2CCNC4=O)cc1 [RUCAPARIB]	–	> 10	> 30	12.3	–	–	–	–	–	–	–	–	–	–	–	–
CC1OC2(CS1)CN1CCC2CC1 (centres undefined) [CEVIMELINE]	> 10	–	> 10	> 30	–	> 10	> 10	–	–	–	–	–	–	–	–	> 30
Cc1noc(NS(=O)(=O)c2ccc(N)cc2)c1C [SULFISOXAZOLE]	> 10	> 10	–	> 10	> 10	> 10	> 10	> 30	–	–	–	–	–	–	–	22
CC(N)C(O)c1ccccc1 (centres undefined) [PHENYLPROPANOLAMINE]	> 10	> 10	> 30	> 10	> 10	> 10	> 10	–	–	–	–	–	–	–	–	> 30
CCOC(=O)C1=C(C)NC(C)=C(C(=O)OC)C1c1cccc([N+](=O)[O-])c1 (centres undefined) [NITRENDIPINE]	> 10	> 10	–	> 10	> 10	> 10	> 10	22	–	–	–	–	–	–	–	> 30
CCCN[C@H]1CCc2nc(N)sc2C1 [PRAMIPEXOLE]	> 10	> 10	–	> 10	> 10	> 10	> 10	> 30	–	–	–	–	–	–	–	13
Clc1ccc(C(Cn2ccnc2)OCc2ccsc2Cl)c(Cl)c1 (centres undefined) [TIOCONAZOLE]	> 30	> 30	17.9	13.5	> 30	> 30	> 30	–	–	–	–	–	–	–	–	3.2
CC(C)(C)NC[C@H](O)COc1cccc2c1CCCC2=O [LEVOBUNOLOL]	–	–	–	–	–	–	–	–	> 30	> 30	> 30	> 30	> 30	> 30	> 30	–
COc1ccc(CN(CCN(C)C)c2ccccn2)cc1 [PYRILAMINE]	–	–	–	–	–	–	–	–	> 30	> 30	> 30	> 30	> 30	> 30	8.61	–
CCC1(c2ccccc2)CCC(=O)NC1=O (centres undefined) [GLUTETHIMIDE]	> 10	> 10	–	> 10	> 10	> 10	> 10	> 30	–	–	–	–	–	–	–	> 30
Cc1cc2cc3c(C)cc(=O)oc3c(C)c2o1 [TRIOXSALEN]	> 10	> 10	–	> 10	–	> 10	> 10	–	–	–	–	–	–	–	–	–
Cc1cc(C(C)(C)C)cc(C)c1CC1=NCCN1 [XYLOMETAZOLINE]	> 30	12.1	> 30	1.27	6.9	> 30	–	> 30	–	–	–	–	–	–	–	–
CCCCC1C(=O)N(c2ccccc2)N(c2ccccc2)C1=O [PHENYLBUTAZONE]	> 10	> 10	> 10	> 10	–	> 10	> 10	–	–	–	–	–	–	–	–	–
CC(C)(C)C(=O)OCC(=O)[C@H]1CC[C@H]2[C@@H]3CCC4=CC(=O)CC[C@]4(C)[C@H]3CC[C@]12C [DESOXYCORTICOSTERONE PIVALATE]	> 10	> 10	–	> 10	> 10	> 10	> 10	> 30	–	–	–	–	–	–	–	> 30
Cc1c(N(C)CS(=O)(=O)O)c(=O)n(-c2ccccc2)n1C [METAMIZOLE]	–	–	–	–	–	–	–	–	> 30	> 30	> 30	> 30	> 30	> 30	> 30	–
[H]/N=C(/N)N/C(=N/[H])NCCc1ccccc1 [PHENFORMIN]	> 10	> 10	> 30	15	> 10	> 10	> 10	–	–	–	–	–	–	–	–	–
CCOC(=O)c1cncn1[C@H](C)c1ccccc1 [ETOMIDATE]	–	> 10	> 10	> 10	> 10	–	> 10	–	–	–	–	–	–	–	–	> 30
CN1CCC(=C2c3ccccc3CCc3cccnc32)CC1 [AZATADINE]	> 10	0.08	–	8.64	> 10	> 10	1.6	> 30	–	–	–	–	–	–	–	> 30
CNC1=Nc2ccc(Cl)cc2C(c2ccccc2)=[N+]([O-])C1 [CHLORDIAZEPOXIDE]	0.79	> 10	> 30	> 10	> 10	> 10	> 10	–	–	–	–	–	–	–	–	> 30
Nc1ncn([C@H]2C[C@H](O)[C@@H](CO)O2)c(=O)n1 [DECITABINE]	> 30	> 30	> 30	> 30	> 30	> 30	> 30	–	–	–	–	–	–	–	–	–
